Data: patent US10350271B2, “Lipidated peptides for lowering blood glucose” (USTAV ORGANICKE CHEMIE A BIOCHEMIE AKADEMIE VED CR, V.V.I., priority 2014, dated 2019)
Square brackets hold non-standard residues; d marks the D form. Peptide text beside a SMILES is read from it. * marks the point of attachment. Phe(3,4-Cl2) = N[C@@H](Cc1ccc(Cl)c(Cl)c1)C(=O)O; 1Nal = N[C@@H](Cc1cccc2ccccc12)C(=O)O; Stearoyl = CCCCCCCCCCCCCCCCCC(=O)*; Palmitoyl = CCCCCCCCCCCCCCCC(=O)*; Myristoyl = CCCCCCCCCCCCCC(=O)*; Lauroyl = CCCCCCCCCCCC(=O)*; Nle = CCCC[C@H](N)C(=O)O

Experiments:
[1] = molecular target: T1, human PrRP receptor GPR10 (Homo sapiens, UniProt P49683); assay: Competitive binding in CHO cells transfected with human GPR10 (human 125I-PrRP31); conditions: for % of PrRP31, GPR10 human receptor transfected in CHO cells: affinity relative to PrRP31
T1 construct: host or cells: CHO cells
T1 sequence (P49683 1-370): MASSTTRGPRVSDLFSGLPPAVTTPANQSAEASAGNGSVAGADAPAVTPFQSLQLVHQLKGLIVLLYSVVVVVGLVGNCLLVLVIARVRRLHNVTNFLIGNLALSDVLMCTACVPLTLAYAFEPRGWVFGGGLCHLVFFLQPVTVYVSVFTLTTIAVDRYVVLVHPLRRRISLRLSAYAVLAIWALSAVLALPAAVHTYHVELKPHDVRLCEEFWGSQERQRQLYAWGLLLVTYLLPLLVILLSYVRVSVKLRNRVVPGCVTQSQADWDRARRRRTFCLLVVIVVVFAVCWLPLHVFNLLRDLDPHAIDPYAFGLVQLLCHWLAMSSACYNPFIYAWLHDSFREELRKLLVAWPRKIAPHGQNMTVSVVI
Procedure, shortened: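 Values from one-site nonlinear regression of displacement curves: analogs (final 10^-11 to 10^-4 mol·l^-1) competed with 125I-PrRP31 (final 5×10^-11 mol·l^-1) on adherent human GPR10 CHO cells. Binding ran 1 h at room temperature, pH 7.4 buffer with NaCl, MgCl2, CaCl2, glucose, BSA; cell-bound radioactivity counted after NaOH lysis.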

C57BL/6 mice = assay: Food intake in fasted mice after SC injection; type: in vivo; conditions: 5 mg/kg SC, 45 min after injection
Method: NMRI mice, C57BL/6 mice, and Wistar rats (AnLab, Prague, Czech Republic) were housed in a temperature of 23° C. and a daily cycle of 12 h light and dark (light from 6:00). They were given ad libitum water and a standard chow diet that contained 25, 9 and 66% of calories of protein, fat and carbohydrate respectively. Energy content of the feed was 3.4 kcal/g (St-1, Mlýn Kocanda, Czech Republic). Db/db mice and their controls (C57BL/6 background) were obtained from Taconic (Denmark), housed under the same conditions as described above, and fed by Altromin (Taconic, Denmark). ZDF-Lepr^fa/Crl, diabetic fa/fa male rats were obtained from Charles River (France), housed under same conditions as described above, and fed with a Purina 5008 diet (IPS Product Supplies Limited, UK). All experiments followed the ethical guidelines for animal experiments and the law of the Czech Republic Nr. 246/1992.
In experiments with C57BL/6 mice or Wistar rats, food intake was measured with overnight fasted animals in individual cages. Food was withdrawn 17 hours prior to injection of lipidated analog of prolactin releasing peptide (PrRP); free access to water was maintained. The administration of either saline, PrRP, or lipidated analogs was performed by SC injection at doses of 1-10 mg/kg (which corresponded to a volume of 0.2 ml/mouse and 0.1 ml/100 g weight of rat). Fifteen minutes after the lipidated analog of prolactin releasing peptide (PrRP) administration, the mice were given pre-weighed food. The food was then weighed every 30 minutes for 5-10 hours. The administration of each dose was performed at least twice, and each group of mice consisted of at least 6 mice.

rat PrRP receptor = molecular target: T2, rat PrRP receptor (Rattus norvegicus, UniProt Q64121); assay: Competitive binding in RC-4B/C rat pituitary cells (125I-rat PrRP31); conditions: for % of PrRP31, RC-4B/C rat pituitary cells: affinity relative to PrRP31
T2 construct: host or cells: RC-4B/C rat pituitary cell line
T2 sequence (Q64121 1-370): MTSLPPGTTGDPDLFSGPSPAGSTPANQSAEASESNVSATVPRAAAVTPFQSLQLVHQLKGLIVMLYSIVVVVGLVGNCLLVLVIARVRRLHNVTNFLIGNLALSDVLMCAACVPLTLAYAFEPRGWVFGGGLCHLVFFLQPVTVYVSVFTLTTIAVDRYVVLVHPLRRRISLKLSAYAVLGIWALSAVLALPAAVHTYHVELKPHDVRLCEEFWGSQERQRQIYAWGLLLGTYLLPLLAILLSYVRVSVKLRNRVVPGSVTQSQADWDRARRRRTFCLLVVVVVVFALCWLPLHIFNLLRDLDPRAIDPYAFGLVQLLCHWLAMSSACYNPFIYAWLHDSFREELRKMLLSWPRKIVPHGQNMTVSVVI
Procedure, shortened: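 Displacement of rat 125I-PrRP31 ([…]) by test analogs, 10^−11–10^−4 mol·l^−1, on whole RC-4B/C cells, 60 min RT. Bound counts measured by γ-counter in duplicate, ≥3 repeats, analyzed by nonlinear one-site binding regression.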

SMILES | % of PrRP31, GPR10 human receptor transfected in CHO cells [1] [%] | % of PrRP31, RC-4B/C rat pituitary cells (rat PrRP receptor) [%] | Ki ([1]; CHO cells, human 125I-PrRP31, read-out: Ki, GPR10 human receptor transfected in CHO cells) [nM] | Ki (rat PrRP receptor; RC-4B/C cells, displacement of 125I-rat PrRP31, read-out: Ki, RC-4B/C rat pituitary cells ^25I-rat PrRP31) [nM] | Food intake in mice % of saline-treated group (C57BL/6 mice) [%]
CCCCCCCCCCCCCCCCCC(=O)N[C@@H](CO)C(=O)N[C@@H](CCCNC(=N)N)C(=O)N[C@@H](C)C(=O)N[C@@H](Cc1c[nH]cn1)C(=O)N[C@@H](CCC(N)=O)C(=O)N[C@@H](Cc1c[nH]cn1)C(=O)N[C@@H](CO)C(=O)N[C@@H](CCCC)C(=O)N[C@@H](CCC(=O)O)C(=O)N[C@H](C(=O)N[C@@H](CCCNC(=N)N)C(=O)N[C@H](C(=O)N1CCC[C@H]1C(=O)N[C@@H](CC(=O)O)C(=O)N[C@H](C(=O)N[C@@H](CC(N)=O)C(=O)N1CCC[C@H]1C(=O)N[C@@H](C)C(=O)N[C@@H](Cc1c[nH]c2ccccc12)C(=O)N[C@@H](Cc1ccc(O)cc1)C(=O)N[C@H](C(=O)NCC(=O)N[C@@H](CCCNC(=N)N)C(=O)NCC(=O)N[C@H](C(=O)N[C@@H](CCCNC(=N)N)C(=O)N1CCC[C@H]1C(=O)N[C@H](C(=O)NCC(=O)N[C@@H](CCCNC(=N)N)C(=O)N[C@@H](Cc1ccccc1)C(N)=O)C(C)C)[C@@H](C)CC)[C@@H](C)O)[C@@H](C)CC)[C@@H](C)O)[C@@H](C)O [Analog 9] (Stearoyl-SRAHQHS[Nle]ETRTPDINPAWYTGRGIRPVGRF-NH2) | 7 | 514 | – | – | 3.5
CCCCCCCCCCCCCCCC(=O)N[C@@H](CO)C(=O)N[C@@H](CCCNC(=N)N)C(=O)N[C@@H](C)C(=O)N[C@@H](Cc1c[nH]cn1)C(=O)N[C@@H](CCC(N)=O)C(=O)N[C@@H](Cc1c[nH]cn1)C(=O)N[C@@H](CO)C(=O)N[C@@H](CCCC)C(=O)N[C@@H](CCC(=O)O)C(=O)N[C@H](C(=O)N[C@@H](CCCNC(=N)N)C(=O)N[C@H](C(=O)N1CCC[C@H]1C(=O)N[C@@H](CC(=O)O)C(=O)N[C@H](C(=O)N[C@@H](CC(N)=O)C(=O)N1CCC[C@H]1C(=O)N[C@@H](C)C(=O)N[C@@H](Cc1c[nH]c2ccccc12)C(=O)N[C@@H](Cc1ccc(O)cc1)C(=O)N[C@H](C(=O)NCC(=O)N[C@@H](CCCNC(=N)N)C(=O)NCC(=O)N[C@H](C(=O)N[C@@H](CCCNC(=N)N)C(=O)N1CCC[C@H]1C(=O)N[C@H](C(=O)NCC(=O)N[C@@H](CCCNC(=N)N)C(=O)N[C@@H](Cc1cccc2ccccc12)C(N)=O)C(C)C)[C@@H](C)CC)[C@@H](C)O)[C@@H](C)CC)[C@@H](C)O)[C@@H](C)O [Analog 12] (Palmitoyl-SRAHQHS[Nle]ETRTPDINPAWYTGRGIRPVGR[1Nal]-NH2) | 91 | 111 | – | – | 13
CCCCCCCCCCCCCC(=O)N[C@@H](CO)C(=O)N[C@@H](CCCNC(=N)N)C(=O)N[C@@H](C)C(=O)N[C@@H](Cc1c[nH]cn1)C(=O)N[C@@H](CCC(N)=O)C(=O)N[C@@H](Cc1c[nH]cn1)C(=O)N[C@@H](CO)C(=O)N[C@@H](CCCC)C(=O)N[C@@H](CCC(=O)O)C(=O)N[C@H](C(=O)N[C@@H](CCCNC(=N)N)C(=O)N[C@H](C(=O)N1CCC[C@H]1C(=O)N[C@@H](CC(=O)O)C(=O)N[C@H](C(=O)N[C@@H](CC(N)=O)C(=O)N1CCC[C@H]1C(=O)N[C@@H](C)C(=O)N[C@@H](Cc1c[nH]c2ccccc12)C(=O)N[C@@H](Cc1ccc(O)cc1)C(=O)N[C@H](C(=O)NCC(=O)N[C@@H](CCCNC(=N)N)C(=O)NCC(=O)N[C@H](C(=O)N[C@@H](CCCNC(=N)N)C(=O)N1CCC[C@H]1C(=O)N[C@H](C(=O)NCC(=O)N[C@@H](CCCNC(=N)N)C(=O)N[C@@H](Cc1ccc(Cl)c(Cl)c1)C(N)=O)C(C)C)[C@@H](C)CC)[C@@H](C)O)[C@@H](C)CC)[C@@H](C)O)[C@@H](C)O [Analog 14] (Myristoyl-SRAHQHS[Nle]ETRTPDINPAWYTGRGIRPVGR[Phe(3,4-Cl2)]-NH2) | 409 | 275 | 0.95 ± 0.33 | 1.79 ± 1.02 | 13

Continued, in another order:

% of PrRP31, GPR10 human receptor transfected in CHO cells [1] [%] | % of PrRP31, RC-4B/C rat pituitary cells (rat PrRP receptor) [%] | Ki ([1]; CHO cells, human 125I-PrRP31, read-out: Ki, GPR10 human receptor transfected in CHO cells) [nM] | Ki (rat PrRP receptor; RC-4B/C cells, displacement of 125I-rat PrRP31, read-out: Ki, RC-4B/C rat pituitary cells ^25I-rat PrRP31) [nM] | SMILES | Food intake in mice % of saline-treated group (C57BL/6 mice) [%]
327 | 1264 | – | – | CCCCCCCCCCCC(=O)N[C@@H](CO)C(=O)N[C@@H](CCCNC(=N)N)C(=O)N[C@@H](C)C(=O)N[C@@H](Cc1c[nH]cn1)C(=O)N[C@@H](CCC(N)=O)C(=O)N[C@@H](Cc1c[nH]cn1)C(=O)N[C@@H](CO)C(=O)N[C@@H](CCCC)C(=O)N[C@@H](CCC(=O)O)C(=O)N[C@H](C(=O)N[C@@H](CCCNC(=N)N)C(=O)N[C@H](C(=O)N1CCC[C@H]1C(=O)N[C@@H](CC(=O)O)C(=O)N[C@H](C(=O)N[C@@H](CC(N)=O)C(=O)N1CCC[C@H]1C(=O)N[C@@H](C)C(=O)N[C@@H](Cc1c[nH]c2ccccc12)C(=O)N[C@@H](Cc1ccc(O)cc1)C(=O)N[C@H](C(=O)NCC(=O)N[C@@H](CCCNC(=N)N)C(=O)NCC(=O)N[C@H](C(=O)N[C@@H](CCCNC(=N)N)C(=O)N1CCC[C@H]1C(=O)N[C@H](C(=O)NCC(=O)N[C@@H](CCCNC(=N)N)C(=O)N[C@@H](Cc1ccccc1)C(N)=O)C(C)C)[C@@H](C)CC)[C@@H](C)O)[C@@H](C)CC)[C@@H](C)O)[C@@H](C)O [Analog 6] (Lauroyl-SRAHQHS[Nle]ETRTPDINPAWYTGRGIRPVGRF-NH2) | 22
548 | 714 | – | – | CCCCCCCCCCCCCC(=O)N[C@@H](CO)C(=O)N[C@@H](CCCNC(=N)N)C(=O)N[C@@H](C)C(=O)N[C@@H](Cc1c[nH]cn1)C(=O)N[C@@H](CCC(N)=O)C(=O)N[C@@H](Cc1c[nH]cn1)C(=O)N[C@@H](CO)C(=O)N[C@@H](CCCC)C(=O)N[C@@H](CCC(=O)O)C(=O)N[C@H](C(=O)N[C@@H](CCCNC(=N)N)C(=O)N[C@H](C(=O)N1CCC[C@H]1C(=O)N[C@@H](CC(=O)O)C(=O)N[C@H](C(=O)N[C@@H](CC(N)=O)C(=O)N1CCC[C@H]1C(=O)N[C@@H](C)C(=O)N[C@@H](Cc1c[nH]c2ccccc12)C(=O)N[C@@H](Cc1ccc(O)cc1)C(=O)N[C@H](C(=O)NCC(=O)N[C@@H](CCCNC(=N)N)C(=O)NCC(=O)N[C@H](C(=O)N[C@@H](CCCNC(=N)N)C(=O)N1CCC[C@H]1C(=O)N[C@H](C(=O)NCC(=O)N[C@@H](CCCNC(=N)N)C(=O)N[C@@H](Cc1ccccc1)C(N)=O)C(C)C)[C@@H](C)CC)[C@@H](C)O)[C@@H](C)CC)[C@@H](C)O)[C@@H](C)O [Analog 7] (Myristoyl-SRAHQHS[Nle]ETRTPDINPAWYTGRGIRPVGRF-NH2) | 3
128 | 967 | – | – | CCCCCCCCCCCCCCCC(=O)N[C@@H](CO)C(=O)N[C@@H](CCCNC(=N)N)C(=O)N[C@@H](C)C(=O)N[C@@H](Cc1c[nH]cn1)C(=O)N[C@@H](CCC(N)=O)C(=O)N[C@@H](Cc1c[nH]cn1)C(=O)N[C@@H](CO)C(=O)N[C@@H](CCCC)C(=O)N[C@@H](CCC(=O)O)C(=O)N[C@H](C(=O)N[C@@H](CCCNC(=N)N)C(=O)N[C@H](C(=O)N1CCC[C@H]1C(=O)N[C@@H](CC(=O)O)C(=O)N[C@H](C(=O)N[C@@H](CC(N)=O)C(=O)N1CCC[C@H]1C(=O)N[C@@H](C)C(=O)N[C@@H](Cc1c[nH]c2ccccc12)C(=O)N[C@@H](Cc1ccc(O)cc1)C(=O)N[C@H](C(=O)NCC(=O)N[C@@H](CCCNC(=N)N)C(=O)NCC(=O)N[C@H](C(=O)N[C@@H](CCCNC(=N)N)C(=O)N1CCC[C@H]1C(=O)N[C@H](C(=O)NCC(=O)N[C@@H](CCCNC(=N)N)C(=O)N[C@@H](Cc1ccccc1)C(N)=O)C(C)C)[C@@H](C)CC)[C@@H](C)O)[C@@H](C)CC)[C@@H](C)O)[C@@H](C)O [Analog 8] (Palmitoyl-SRAHQHS[Nle]ETRTPDINPAWYTGRGIRPVGRF-NH2) | 7
